Literature values, collected in patent US9428497B2, “Precursor compounds for the radiosynthesis of [18F] norchloro-fluorohomoepibatidine” (priority 2011, dated 2016).
Where two headings read alike, the source gives them in different places.

Key:
[1] = mice; compared with 2-[18F]F-A-85380
[2] = piglets; compared with 2-[18F]F-A-85380

## [18F]c1ccc(C2CC3CCCC2N3)cn1 (single isomer, unassigned; (-)) [(−)-[^18F]NCFHEB, (−)-[^18F]norchloro-fluoro-homoepibatidine]
[1]
  cerebral uptake relative to 2-[18F]F-A-85380: more than two times higher
[2]
  cerebral uptake relative to 2-[18F]F-A-85380: more than two times higher
